Patent US12379386B2, “Antibodies to 25-hydroxyvitamin D2 and D3 for detecting total 25-hydroxyvitamin D” (Siemens Healthcare Diagnostics Inc., priority 2011, dated 2025)
Several values for one entry are separate records, joined by “and”; a condition that tells them apart may be missing. Equal values may be shown once.

What was measured:
[1] = system: anti 25-hydroxy Vitamin D monoclonal antibody labeled with acridinium ester (monoclonal antibody 10H9); test: Cross-reactivity in ADVIA Centaur Vitamin D Total assay; type: binding, mouse
Method: Biological sample is added to a reaction cuvette followed by displacement buffer and allowed to react for 4.5 minutes. Monoclonal antibody conjugated to acridinium ester is added and allowed to react for 5.5 minutes to bind 25-hydroxyvitamin D in the sample. […] The reaction cuvette is washed, and acid and base reagents are added to initiate the chemiluminescent reaction. The time-to-result is 18 minutes. An inverse relationship exists between the amount of 25-hydroxyvitamin D in the patient sample and the amount of relative light units (RLUs) detected by the system.
Assay: The ADVIA Centaur Vitamin D Total assay is a one-pass, 18-minute antibody competitive immunoassay that uses an antifluorescein-labeled monoclonal antibody covalently bound to paramagnetic particles (PMPs), one monoclonal antibody labeled with acridinium ester (AE), and a vitamin D analog labeled with fluorescein (FIG. 8). The Vitamin D Total assay requires 20 μL of sample volume for a single determination. The time-to-first-result is 18 minutes and the throughput is 240 tests/hour.
Briefly, the first step of the sequential step hapten/antibody competitive immunoassay using chemiluminescent technology begins with the analyzer dispensing 20 μL of biological sample into a cuvette followed by addition of 200 μl of displacement buffer (50 mM HEPES, 150 mM NaCl, 0.09% sodium azide, pH=7.5) containing 8-anilino-1-naphthalenesulfonic acid ammonium salt (Sigma-aldrich, St. Louis, MO) and ethylene glycol (Sigma-aldrich, St. Louis, MO) and incubation for 4.5 minutes at 37° C. Lite Reagent (50 μL) containing an anti 25-hydroxy Vitamin D monoclonal antibody labeled with acridinium ester (monoclonal antibody 10H9) is added to the mixture and incubated for 5.5 min at 37° C. C22-PEG-BSA-fluorescein conjugate (50 μL) and anti-fluorescein monoclonal antibody coated paramagnetic microparticles (100 μL) are added to the mixture and incubated for 3.75 minutes at 37° C. The fourth step is separation of Solid Phase complex with bound C22-PEG-BSA-fluorescein conjugate and anti 25-hydroxy vitamin D monoclonal antibody labeled with acridinium ester, followed by washing three times to remove any free Lite Reagent. Last is the sequential dispensing of 300 μL each of acid reagent then base reagent to initiate the chemiluminescent reaction. The total incubation time from sample to result is 18 minutes. There is an indirect relationship between the amount of 25-hydroxy vitamin D present in the biological sample and the amount of chemiluminescence quantified as relative light units (RLUs). In the Centaur-based assay, there is an inverse relationship between RLUs emitted by the acridinium ester and the amount of vitamin D because the 25-hydroxyvitamin D released from the carrier protein in the plasma competes with the Vitamin D-BSA-Fluorescein for binding with a limited amount of the acridinium-labeled 10H9 monoclonal antibody. Higher levels of 25(OH)D in the patient sample would lower the amount of the acridinium-MAb-VitD-BSA-Fluorescein complex on the magnetic particles resulting in lower RLUs.
Cross-reactivity: Five vitamin D derivatives were analyzed using the ADVIA Centaur Vitamin D Total assay. The vitamin D derivatives were spiked into a sample containing 27 ng/mL of vitamin D total. Three replicates of the spiked samples were assayed and the vitamin D total concentration determined.

BALB/c mice = test: ELISA of sera from mice immunized with vitamin D-C22 BSA; type: in vivo, mouse; settings: coat Vit D C22 Lc-BSA 500 ng/mL, individual mice 0-4 in c3-c7
Method: Experiments were conducted to produce antibodies that could preferentially bind to molecules having structural aspects of the vitamin D-C22 antigenic molecule. These experiments were conducted in accordance with the method of Galfre et al. (Nature, 266:550 (1977)), as modified by Oi and Herzenberg (Selected Methods in Cellular Immunology (1980)). Initially, BALB/c mice were immunized with vitamin D-C22 BSA emulsified in Freund's Complete adjuvant followed by a secondary immunization using Freund's Incomplete adjuvant. Sera of immunized mice were collected two weeks after the secondary immunization.
Collected sera were tested for antigen reactivity by ELISA as follows: microtiter plates coated with vitamin D-C22 BSA were incubated with mouse antisera, diluted in dilution buffer, for one hour. Plates were washed and a secondary antibody (goat-anti-mouse IgG) conjugated to horseradish peroxidase (HRPO) in dilution buffer was added and incubated for 30 minutes. Plates were washed and the colorimetric substrate 3,3′,5,5′-tetramethylbenzidine (TMB) was added. The generated color was stopped using 1N sulfuric acid and the optical density was measured at 450 nm.

[2] = crossreactant 100 ng/mL spiked, expected (endogenous) vitamin D total 27 ng/mL

Molecule: C=C1CC[C@@H](O)C/C1=C/C=C1\CCC[C@]2(C)[C@@H]([C@H](C)CCCC(C)(C)O)CC[C@@H]12 [3-epi-25(OH)D3]
- Cross-reactivity (in words) [1]: very low cross-reactivity
- Cross-reactivity [1, 2]: 0.0%

Molecule: C=C1CC[C@H](O)C/C1=C/C=C1\CCC[C@]2(C)[C@@H]([C@H](C)/C=C/[C@H](C)C(C)(C)O)CC[C@@H]12 [25-(OH)-Vit D2, 25-hydroxyvitamin D2]
- Cross-reactivity ([1]; at 50 ng/mL): 105%
- Cross-reactivity ([1]; crossreactant 30 ng/mL spiked, expected (endogenous) vitamin D total 27 ng/mL): 102%

Molecule: C=C1CC[C@H](O)C/C1=C/C=C1\CCC[C@]2(C)[C@@H]([C@H](C)CCCC(C)(C)O)CC[C@@H]12 [25-(OH)-Vit D3, 25-hydroxyvitamin D3]
- Cross-reactivity ([1]; crossreactant 27 ng/mL, expected (endogenous) vitamin D total 0 ng/mL): 100%

Molecule: C=C1CC[C@H](O)C/C1=C/C=C1\CCC[C@]2(C)[C@@H]([C@H](C)/C=C/[C@H](C)C(C)C)CC[C@@H]12 [Vitamin D2]
- Cross-reactivity (in words) [1]: very low cross-reactivity
- Cross-reactivity [1, 2]: 0.04%

Molecule: C=C1CC[C@H](O)C/C1=C/C=C1\CCC[C@]2(C)[C@@H]([C@H](C)CCCC(C)C)CC[C@@H]12 [Vitamin D3]
- Cross-reactivity (in words) [1]: very low cross-reactivity
- Cross-reactivity [1, 2]: 0.04%

Molecule: vitamin D-C22 diaminobutane-suberoyl-BSA [Vit D C22]
- optical density at 450 nm (BALB/c mice; serum dilution 1:100): 3.747 and 3.687 and 3.625 and 3.700 and 3.652
- optical density at 450 nm (BALB/c mice; serum dilution 1:200): 3.750 and 3.693 and 3.649 and 3.663 and 3.634
- optical density at 450 nm (BALB/c mice; serum dilution 1:400): 3.602 and 3.640 and 3.633 (2×) and 3.441
- optical density at 450 nm (BALB/c mice; serum dilution 1:800): 3.634 and 3.731 and 3.603 and 3.708 and 3.696
- optical density at 450 nm (BALB/c mice; serum dilution 1:1600): 3.578 and 3.605 and 3.532 and 3.638 and 3.687
- optical density at 450 nm (BALB/c mice; serum dilution 1:3200): 3.534 and 3.508 and 3.171 and 3.454 and 3.608
- optical density at 450 nm (BALB/c mice; serum dilution 1:6400): 3.177 and 3.133 and 2.533 and 3.057 and 3.473
- optical density at 450 nm (BALB/c mice; serum dilution 1:12800): 2.449 and 2.406 and 1.731 and 2.325 and 3.042
